# Laboratory results taken from ChEMBL document CHEMBL3885881, “DrugMatrix”.
# Species: Rattus norvegicus
# Test: DrugMatrix - Regimen: Daily Repeat
# Format: toxicity, organism-based, Sprague-Dawley
# Set-up: regimen Daily Repeat, gender Male, age 6-8 weeks
# Conditions: in vivo, po, route oral GAVAGE, vehicle 100 % WATER; for ABSOLUTE BASOPHIL / ABSOLUTE EOSINOPHIL / ABSOLUTE LYMPHOCYTE / ABSOLUTE MONOCYTE / ABSOLUTE SEGMENTED NEUTROPHIL / BASOPHIL / EOSINOPHIL / ERYTHROCYTE COUNT / HEMATOCRIT / HEMOGLOBIN / LEUKOCYTE COUNT / LYMPHOCYTE / MEAN CORPUSCULAR HEMOGLOBIN / MEAN CORPUSCULAR HEMOGLOBIN CONCENTRATION / MEAN CORPUSCULAR VOLUME / MONOCYTE / NEUTROPHIL / NUCLEATED RED BLOOD CELLS / PLATELET COUNT: tissue Blood; for ALANINE AMINOTRANSFERASE / ALBUMIN / ALKALINE PHOSPHATASE / ASPARTATE AMINOTRANSFERASE / BLOOD UREA NITROGEN / CARBON DIOXIDE / CHLORIDE / CHOLESTEROL / CREATINE PHOSPHOKINASE / CREATININE / GLUCOSE / LACTATE DEHYDROGENASE / LIPASE / PHOSPHORUS / POTASSIUM / SODIUM / TOTAL BILIRUBIN / TOTAL PROTEIN / URIC ACID: tissue Plasma
# [1] = 0 mg/kg, 72 h, dose level Control, time 3 day
# [2] = 0 mg/kg, 120 h, dose level Control, time 5 day
# [3] = 28 mg/kg, 72 h, dose level Low, time 3 day
smiles,measurement,setting,value
Cn1cc[nH]c1=S [METHIMAZOLE],ABSOLUTE BASOPHIL,[1],0 CELLS/uL
same,ABSOLUTE EOSINOPHIL,[1],0 CELLS/uL
same,ABSOLUTE LYMPHOCYTE,[1],8482.5 CELLS/uL
same,ABSOLUTE MONOCYTE,[1],63.83 CELLS/uL
same,ABSOLUTE SEGMENTED NEUTROPHIL,[1],887 CELLS/uL
same,BASOPHIL,[1],0%
same,EOSINOPHIL,[1],0%
same,ERYTHROCYTE COUNT,[1],5.49 x10E6/uL
same,HEMATOCRIT,[1],34.5%
same,HEMOGLOBIN,[1],13.33 G/DL
same,LEUKOCYTE COUNT,[1],9.43 x10E3/uL
same,LYMPHOCYTE,[1],90.17%
same,MEAN CORPUSCULAR HEMOGLOBIN,[1],24.3 pg
same,MEAN CORPUSCULAR HEMOGLOBIN CONCENTRATION,[1],38.63 G/DL
same,MEAN CORPUSCULAR VOLUME,[1],62.88 fL
same,MONOCYTE,[1],0.67%
same,NEUTROPHIL,[1],9.17%
same,NUCLEATED RED BLOOD CELLS,[1],0.67 /100WBC
same,PLATELET COUNT,[1],1022.83 x10E3/uL
same,ALANINE AMINOTRANSFERASE,[1],50.5 u/L
same,ALBUMIN,[1],4.08 G/DL
same,ALKALINE PHOSPHATASE,[1],368.33 u/L
same,ASPARTATE AMINOTRANSFERASE,[1],87.5 u/L
same,BLOOD UREA NITROGEN,[1],12.83 mg/dL
same,CARBON DIOXIDE,[1],32.83 mmol/L
same,CHLORIDE,[1],99.67 MEQ/L
same,CHOLESTEROL,[1],79.67 mg/dL
same,CREATINE PHOSPHOKINASE,[1],585 u/L
same,CREATININE,[1],0.22 mg/dL
same,GLUCOSE,[1],135.67 mg/dL
same,LACTATE DEHYDROGENASE,[1],171 u/L
same,LIPASE,[1],9.5 u/L
same,PHOSPHORUS,[1],11.18 mg/dL
same,POTASSIUM,[1],6.25 MEQ/L
same,SODIUM,[1],144.87 MEQ/L
same,TOTAL BILIRUBIN,[1],0.2 mg/dL
same,TOTAL PROTEIN,[1],6.08 G/DL
same,URIC ACID,[1],0.65 mg/dL
same,ABSOLUTE BASOPHIL,[2],0 CELLS/uL
same,ABSOLUTE EOSINOPHIL,[2],14.5 CELLS/uL
same,ABSOLUTE LYMPHOCYTE,[2],7596.17 CELLS/uL
same,ABSOLUTE MONOCYTE,[2],69.67 CELLS/uL
same,ABSOLUTE SEGMENTED NEUTROPHIL,[2],503 CELLS/uL
same,BASOPHIL,[2],0%
same,EOSINOPHIL,[2],0.17%
same,ERYTHROCYTE COUNT,[2],5.49 x10E6/uL
same,HEMATOCRIT,[2],34.72%
same,HEMOGLOBIN,[2],13.47 G/DL
same,LEUKOCYTE COUNT,[2],8.18 x10E3/uL
same,LYMPHOCYTE,[2],92.17%
same,MEAN CORPUSCULAR HEMOGLOBIN,[2],24.57 pg
same,MEAN CORPUSCULAR HEMOGLOBIN CONCENTRATION,[2],38.82 G/DL
same,MEAN CORPUSCULAR VOLUME,[2],63.3 fL
same,MONOCYTE,[2],1%
same,NEUTROPHIL,[2],6.67%
same,NUCLEATED RED BLOOD CELLS,[2],0 /100WBC
same,PLATELET COUNT,[2],1141 x10E3/uL
same,ALANINE AMINOTRANSFERASE,[2],48.33 u/L
same,ALBUMIN,[2],4.07 G/DL
same,ALKALINE PHOSPHATASE,[2],395.67 u/L
same,ASPARTATE AMINOTRANSFERASE,[2],85.67 u/L
same,BLOOD UREA NITROGEN,[2],15.83 mg/dL
same,CARBON DIOXIDE,[2],31.33 mmol/L
same,CHLORIDE,[2],100.83 MEQ/L
same,CHOLESTEROL,[2],62.33 mg/dL
same,CREATINE PHOSPHOKINASE,[2],248.33 u/L
same,CREATININE,[2],0.2 mg/dL
same,GLUCOSE,[2],135.67 mg/dL
same,LACTATE DEHYDROGENASE,[2],141.33 u/L
same,LIPASE,[2],9.5 u/L
same,PHOSPHORUS,[2],10.73 mg/dL
same,POTASSIUM,[2],6.07 MEQ/L
same,SODIUM,[2],145.35 MEQ/L
same,TOTAL BILIRUBIN,[2],0.22 mg/dL
same,TOTAL PROTEIN,[2],6.12 G/DL
same,URIC ACID,[2],0.63 mg/dL
same,ABSOLUTE BASOPHIL,[3],0 CELLS/uL
same,ABSOLUTE EOSINOPHIL,[3],0 CELLS/uL
same,ABSOLUTE LYMPHOCYTE,[3],8790 CELLS/uL
same,ABSOLUTE MONOCYTE,[3],67.33 CELLS/uL
same,ABSOLUTE SEGMENTED NEUTROPHIL,[3],776 CELLS/uL
same,BASOPHIL,[3],0%
same,EOSINOPHIL,[3],0%
same,ERYTHROCYTE COUNT,[3],5.45 x10E6/uL
same,HEMATOCRIT,[3],33.93%
same,HEMOGLOBIN,[3],13.23 G/DL
same,LEUKOCYTE COUNT,[3],9.63 x10E3/uL
same,LYMPHOCYTE,[3],91.33%
same,MEAN CORPUSCULAR HEMOGLOBIN,[3],24.3 pg
same,MEAN CORPUSCULAR HEMOGLOBIN CONCENTRATION,[3],39 G/DL
same,MEAN CORPUSCULAR VOLUME,[3],62.37 fL
same,MONOCYTE,[3],0.67%
same,NEUTROPHIL,[3],8%
same,NUCLEATED RED BLOOD CELLS,[3],0.33 /100WBC
same,PLATELET COUNT,[3],926 x10E3/uL
same,ALANINE AMINOTRANSFERASE,[3],53.33 u/L
same,ALBUMIN,[3],4.17 G/DL
same,ALKALINE PHOSPHATASE,[3],410.67 u/L
same,ASPARTATE AMINOTRANSFERASE,[3],78 u/L
same,BLOOD UREA NITROGEN,[3],11.33 mg/dL
same,CARBON DIOXIDE,[3],33 mmol/L
same,CHLORIDE,[3],98.67 MEQ/L
same,CHOLESTEROL,[3],91.33 mg/dL
same,CREATINE PHOSPHOKINASE,[3],269.33 u/L
same,CREATININE,[3],0.34 mg/dL
same,GLUCOSE,[3],123 mg/dL
same,LACTATE DEHYDROGENASE,[3],147.67 u/L
same,LIPASE,[3],11 u/L
same,PHOSPHORUS,[3],10.97 mg/dL
same,POTASSIUM,[3],6.8 MEQ/L
same,SODIUM,[3],143.6 MEQ/L
same,TOTAL BILIRUBIN,[3],0.23 mg/dL
same,TOTAL PROTEIN,[3],6.13 G/DL
same,URIC ACID,[3],0.8 mg/dL
